Data from publication PMC10645073, “Interaction of gallium, indium and vanadyl diacetylcurcumin complexes with lysozyme: mechanistic aspects and evaluation of antiamyloidogenic activity” (Royal Society Open Science, 2023).
Values belong to the molecule of their own block, whether it stands above or below them.

Key:
[1] = target: T1, hen egg white lysozyme (HEWL) (Gallus gallus, UniProt P00698); assay: Synchronous fluorescence spectroscopy of HEWL; assay type: binding; conditions: Δλ = 60 nm
T1 construct: whose 129 amino acid residues are linked together by four disulfide bridges to form a single polypeptide chain; purchased Sigma-Aldrich L6876; host or cells: hen egg white (natural source, per the protein's name)
Description: To obtain synchronous fluorescence spectra, simultaneous scanning of excitation and emission monochromators was performed in such a way as to maintain a constant wavelength interval between them. The changes in the molecular microenvironment of tyrosine and tryptophan residues of HEWL were monitored by fixing the wavelength interval (Δλ = λem − λex) individually at 15 and 60 nm, respectively. The concentrations of HEWL and three metal complexes of diacetylcurcumin were the same as those mentioned for the intrinsic fluorescence spectroscopy.
To investigate the effect of the metal complexes of diacetylcurcumin on the conformation of tyrosine and tryptophan residues of HEWL, synchronous fluorescence spectra of HEWL were recorded alone and in the presence of the metal complexes (electronic supplementary material, figure S5). By fixing the Δλ value, i.e. the difference between excitation and emission wavelengths, at 15 and 60 nm, synchronous fluorescence spectroscopy provides useful information on the microenvironmental changes of tyrosine and tryptophan residues of proteins, respectively. As shown in the electronic supplementary material, figure S5, all three metal complexes of diacetylcurcumin strongly quench the emission fluorescence of HEWL at both 15 and 60 nm. […] At Δλ = 15 nm, no shift in the emission maximum of HEWL is observed, whereas at Δλ = 60 nm, a 2 nm blue shift is observed in the emission spectrum of tryptophan residues of the protein after the interaction with the metal complexes of diacetylcurcumin except for the VO(DAC)2 complex. […] Overall, it can be concluded that the formation of HEWL/metal complex bioconjugates is associated with the binding of three metal complexes of diacetylcurcumin to both tyrosine and tryptophan residues in which the conformational changes can occur only around the tryptophan residues of the protein. It should be noted that the reduction in the polarity of the microregions surrounding tryptophan residues of the protein has already been observed by the intrinsic emission fluorescence titrations (see §3.1.1.).

[2] = tested on: mouse lymphoma cells; set-up: method as in PMID 16171869; conditions: read-out: IC50 cytotoxicity; cited from earlier work
[3] = target: T1, hen egg white lysozyme (HEWL); assay: Intrinsic fluorescence quenching of HEWL (Stern-Volmer, double logarithmic and van't Hoff analysis); assay type: binding; conditions: for KSV (Stern-Volmer quenching constant): HEWL 3 µM; for kq (bimolecular quenching rate constant): kq = KSV/τ0, τ0 10^−8 s
Description: The intrinsic fluorescence spectra of HEWL (3 µM) in the absence and presence of Ga(DAC)3, In(DAC)3 and VO(DAC)2 complexes were collected using a Varian Cary Eclipse fluorescence spectrophotometer equipped with a 10 mm quartz cell by adjusting the excitation wavelength to 295 nm and setting the width of both excitation and emission slits at 5 nm. After adding the mentioned concentrations of the metal complexes of diacetylcurcumin to HEWL solution, the samples were scanned in the wavelength range of 300–500 nm. Corrections were made for the inner filter effect on the fluorescence spectra according to the following equation: Fcor=Fobs×10^(Aex+Aem)/2, where Fcor is corrected fluorescence intensity, Fobs is the observed (uncorrected) fluorescence intensity, Aex is the absorbance at the fluorescence excitation wavelength and Aem is the absorbance at the selected fluorescence emission wavelength.
The fluorescence quenching process of HEWL in the presence of three metal complexes of diacetylcurcumin can be quantified according to the well-known Stern-Volmer equation:3.1 F0/F=1+KSV[Q]=1+kqτ0[Q],
where F0 and F represent the intrinsic emission intensities of HEWL fluorophores, respectively, in the absence and presence of the metal complexes of diacetylcurcumin, and [Q] is the molar concentration of quencher. KSV, kq and τ0 denote the Stern-Volmer quenching constant, bimolecular quenching rate constant, and the average lifetime of fluorophore without quencher, respectively. The value of KSV, as a parameter of the sensitivity of the fluorophore to a quencher, can be estimated from the slope of the linear plot of F0/F as a function of [Q] (figure 2d,e,f; electronic supplementary material, figure S1). To obtain more accurate quantification of fluorescence data, the total area of the emission fluorescence peaks (S0 and S) was applied instead of the emission fluorescence intensities (F0 and F). The fluorescence quenching phenomenon can be generally divided into two distinct classes: static quenching and dynamic quenching. Owing to the reciprocal and direct correlations between the KSV parameter and temperature, respectively, for static and dynamic quenching, the observed trend in the KSV value versus temperature can be used to distinguish these mechanisms from each other. In dynamic quenching, an increase in temperature leads to faster diffusion of molecules by which weakly bound nonfluorescent complexes are further dissociated, and the value of KSV increases. From the data recorded in table 1, it can be seen that the KSV value of HEWL/Ga(DAC)3 and HEWL/In(DAC)3 systems decreases as temperature increases, while it increases with increasing temperature for the HEWL/VO(DAC)2 system. […] Considering a lifetime value of 10^−8 s for the native fluorophores, [27] the equation kq = KSV/τ0 gives the kq values greater than the diffusion-limited quenching value of 2.0 × 10 ^+ 10 M^−1 s^−1 for all systems.
Assuming that all the binding sites of HEWL are identical and independent and an equilibrium interaction is established between HEWL and each of the metal complexes of diacetylcurcumin, the fluorescence quenching process can be further analysed by the following double logarithmic equation:3.2 log(F0−F/F)=logKb+nlog[Q], where Kb and n represent the binding constant and number of binding sites on each HEWL molecule, respectively. Plotting log[(F0 − F)/F] versus log[Q] produces a straight line whose slope and intercept can be used respectively to estimate the values of n and Kb (electronic supplementary material, figures S2A, S2B, S2C and S3). […] In other words, the resulting bioconjugates are the product of the interaction between HEWL and the metal complexes of diacetylcurcumin with a 1 : 1 stoichiometry. […]

[4] = tested on: Aβ42; conditions: copper-induced Aβ42 cross-linking; cited from earlier work

microenvironment of tryptophan residues of HEWL [1]: more hydrophobic | n (number of binding sites on each HEWL molecule) ([3]; T 293 K): (0.92 ± 0.02) | ΔG^0 (Gibbs free energy change of binding) ([3]; T 293 K): -5.081 ± 0.139 kcal/mol | KSV (Stern-Volmer quenching constant) ([3]; T 293 K): (1.46 ± 0.02) × 10^+4 M^−1 | kq (bimolecular quenching rate constant) ([3]; T 293 K): (1.46 ± 0.02) × 10^+12 M^−1 s^−1 | n (number of binding sites on each HEWL molecule) ([3]; T 303 K): (0.80 ± 0.02) | ΔG^0 (Gibbs free energy change of binding) ([3]; T 303 K): -5.057 ± 0.139 kcal/mol | KSV (Stern-Volmer quenching constant) ([3]; T 303 K): (1.30 ± 0.01) × 10^+4 M^−1 | kq (bimolecular quenching rate constant) ([3]; T 303 K): (1.30 ± 0.01) × 10^+12 M^−1 s^−1 | n (number of binding sites on each HEWL molecule) ([3]; T 308 K): (0.89 ± 0.02) | ΔG^0 (Gibbs free energy change of binding) ([3]; T 308 K): -5.045 ± 0.139 kcal/mol | KSV (Stern-Volmer quenching constant) ([3]; T 308 K): (1.25 ± 0.01) × 10^+4 M^−1 | kq (bimolecular quenching rate constant) ([3]; T 308 K): (1.25 ± 0.01) × 10^+12 M^−1 s^−1 | blue shift of HEWL emission maximum on quenching ([3]; excitation 295 nm, emission maximum 345 nm): 4 nm | fluorescence quenching mechanism ([3]; from KSV versus temperature and kq): static mechanism | binding constant, order of magnitude ([3]; summary of table 1): 10^+3 M^−1 | ΔH^0 (enthalpy change of binding) ([3]; van't Hoff plot over 293–308 K): -5.817 ± 0.0406 kcal/mol | ΔS^0 (entropy change of binding) ([3]; van't Hoff plot over 293–308 K): −10.50 ± 0.55 J mol^−1 K^−1
Molecule: COc1cc(C=CC(=O)C=C([O-])C=Cc2ccc(OC(C)=O)c(OC)c2)ccc1OC(C)=O.COc1cc(C=CC(=O)C=C([O-])C=Cc2ccc(OC(C)=O)c(OC)c2)ccc1OC(C)=O.COc1cc(C=CC(=O)C=C([O-])C=Cc2ccc(OC(C)=O)c(OC)c2)ccc1OC(C)=O.[Ga+3] [Ga(DAC)3, gallium diacetylcurcumin]
IC50 [2]: 25 to 30 µM | main forces / modes of interaction stabilizing the bioconjugate ([3]; from signs of ΔH^0 and ΔS^0): van der Waals interactions and hydrogen bonds

Molecule: COc1cc(C=CC(=O)CC(=O)C=Cc2ccc(O)c(OC)c2)ccc1O [curcumin, 1,7-bis(4-hydroxy-3-methoxyphenyl)-1,6-heptadiene-3,5-dione]
IC50 [2]: 25 to 30 µM

Molecule: CRANAD-17
effect on Aβ amyloid formation [4]: considerably reduces Aβ amyloid formation
